Entries after “also recorded” stand apart in the source; their conditions may differ. Like-named read-outs stand apart in the source and are kept apart here. Where no end group is shown, it is not given here.
Experiments:
[1] = tested on: HLA-A2+ human ovarian cancer stem cells 1031CSC; assay: Killing assay (DDAO-SE / cleaved caspase-3) with peptide-specific CTLs against 1031CSC; settings: CTLs induced by peptide-pulsed HLA-A2+ DC; target:effector 1:10, overnight
Procedure: (§1) Human monocyte-derived DCs were generated using previously described methods. […] The DCs were washed and plated in 6-well plates at a concentration of 5 ×10^6 cells/well IFN-γ (1000 unit/ml), and then monophosphoryl lipid A (MPLA, 20-50μg/ml) (Cat# L6895, Sigma, St. Louis) was added into the wells to mature the DC for 24hr or 48 hrs.
(§2) In order to evaluate antigen-specific immune responses, CD8^+ T cells were isolated from fresh or frozen apheresis by positive selection using Dynabeads® CD8 Positive Isolation Kit (Life Technologies, Grand Island, N.Y.) and co-cultured with autologous mDC for four weeks. DCs were added weekly. Briefly, mDCs were pulsed with synthetic peptides (10 μg/μl) for 6-8 hours at 37° C., and then treated with 20 ug/ml Mitomycin C (Sigma-Aldrich, St. Louis, Mo.) for 25 min at 37° C. and 5% CO2. The mDCs (5×10^4 cells/well) were co-cultured with autologous CD8^+ T cells (5×10^5 cells/well) in a 96-well plate at 37° C., 5% CO2 in a final volume of 200 μl CTL medium (IMDM with 0.24 mM Asparagine, 0.55 mM L-Arginine, 1.5 mM L-Glutamine and 10% heat inactivated human AB serum). Half of the medium was replaced every other day by fresh culture medium containing 40 IU/ml IL-2 and 20 ng/ml IL-7, the 3rd and 4th week 40 U/ml of IL-2 was replaced with 25 ng/ml IL-15. In the culture medium, peptides could also be added to the culture well at a final concentration of 1-2 μg/ml.
(§3) DDAO-SE labeled target cells were mixed with effector cells at a 1:10 ratio in round-bottom 96 well plate and incubated overnight at 37° C., 5% CO2. The cells were washed, fixed, and permeabilized with Fix/Perm solution (BD Biosciences) and then stained for 30 minutes at 4° C. with 10 μl PE-labeled anti-cleaved caspase-3 monoclonal antibody, followed by Cyan flow cytometric analysis (Beckman Coulter, Inc).

[2] = tested on: HLA-A2+ human ovarian cancer stem cells 882CSC; assay: Killing assay (DDAO-SE / cleaved caspase-3) with peptide-specific CTLs against 882CSC; settings: CTLs induced by peptide-pulsed HLA-A2+ DC; target:effector 1:10, overnight
Procedure: as §1, §2, §3

[3] = Immunogenicity in vitro of A2 peptide epitopes (Table 1); settings: A2 peptide epitope(s) of Exemplary Vaccine 1; no method given
[4] = tested on: HLA-A2+ human ovarian cancer stem cells 882CSC
Procedure: as §1, §2, §3

[5] = tested on: HLA-A2+ human ovarian cancer stem cells 1031CSC
Procedure: as §1, §2, §3

HLA-A*0201 molecules = HLA-A*0201 molecules (Homo sapiens, UniProt P04439, D140Y/D185E/D98H/E176V/E277Q/G131W/G231S/I119V/I121R/I166T/I218V/L300P/L318F/N151K/N90K/P208A/P217A/Q86G/Q94H/R138H/R169H/T345S); assay: T2 cell binding assay of HLA-A2 peptides (upregulation of HLA-A2 on T2 cells, MFI by flow cytometry); settings: for binding affinity to HLA-A*0201 molecules / T2 cells (in words): peptide 75 μg/ml, overnight

WLPFGFILI [IL-13Rα2 p345]
cytotoxicity of peptide-specific CTLs against 1031CSC [1]: can efficiently recognize and lyse | cytotoxicity of peptide-specific CTLs against 882CSC [2]: can efficiently recognize and lyse

SLLFLLFSL (listed as Homo sapiens)
Immunogenicity in vitro [3]: Yes

CSCC[C@H](NC(=O)[C@@H](N)C(C)C)C(=O)N[C@@H](C)C(=O)NCC(=O)N[C@H](C(=O)NCC(=O)N[C@@H](CO)C(=O)N1CCC[C@H]1C(=O)N[C@@H](Cc1ccc(O)cc1)C(=O)N[C@H](C(=O)O)C(C)C)C(C)C [HER2 p773]
cytotoxicity of peptide-specific CTLs against 882CSC [4]: can efficiently recognize and lyse | cytotoxicity of peptide-specific CTLs against 1031CSC [5]: can efficiently recognize and lyse

SLLMWITQC [NY-ESO-1 p157]
Immunogenicity in vitro [3]: Yes

KVLEYVIKV (listed as Homo sapiens) [MAGE-A1 p278]
Immunogenicity in vitro [3]: Yes | binding affinity to HLA-A*0201 molecules / T2 cells (in words) (HLA-A*0201 molecules): high affinity binding

TLADFDPRV [EphA2 p883]
cytotoxicity of peptide-specific CTLs against 1031CSC [1]: can efficiently recognize and lyse | cytotoxicity of peptide-specific CTLs against 882CSC [2]: can efficiently recognize and lyse

VLPLTVAEV (listed as Homo sapiens) [mesothelin p531]
Immunogenicity in vitro [3]: Yes | binding affinity to HLA-A*0201 molecules / T2 cells (in words) (HLA-A*0201 molecules): high affinities | binding affinity to HLA-A*0201 molecules / T2 cells (in words) (HLA-A*0201 molecules; listed as mesothelinp531): high affinity binding

EIWTHSYKV (listed as Homo sapiens) [FOLR1 p191]
Immunogenicity in vitro [3]: Yes | MFI index (relative binding affinity fluorescence index, FI) (HLA-A*0201 molecules; T2 cells incubated overnight with peptide 75 μg/ml and β2-microglobulin, FI = MFI(peptide)−MFI(untreated cells)/MFI(untreated cells)): less than 1 | binding affinity to HLA-A*0201 molecules / T2 cells (in words) (HLA-A*0201 molecules): lower affinity binding | binding affinity to HLA-A*0201 molecules / T2 cells (in words) (HLA-A*0201 molecules; listed as FOLR1p191): low affinity; also recorded: lower binding capacity

Reference: patent US10137182B2, “Cancer vaccines and vaccination methods” (ImmunoCellular Therapeutics, Ltd., priority 2013, dated 2018)
